Data set [1] relates to human tumor xenograft models. To be noted: cited from earlier work.
A further data set deals with mTOR enzymes (Homo sapiens, UniProt P42345). To be noted: read-out: IC50 mTOR enzymes; reported in the literature; cited from earlier work.
In another data set the test system is PI3K. The note with it: reported, Raynaud et al 2007; read-out: IC50 PI3K (second named); cited from earlier work.
The target of another data set is PI3 Kinase γ (Homo sapiens, UniProt P48736). Description: Fluorescence polarization assay for PI3K (PI3 Kinase γ). It counts as biochemical. To be noted: diC8-PI(4,5)P2 substrate, 25 μM ATP, one hour at 25° C. Background: Fluorescence polarisation rises when a labelled molecule tumbles more slowly, as on binding a larger partner.
PI3 Kinase γ, sequence (P48736 whole entry): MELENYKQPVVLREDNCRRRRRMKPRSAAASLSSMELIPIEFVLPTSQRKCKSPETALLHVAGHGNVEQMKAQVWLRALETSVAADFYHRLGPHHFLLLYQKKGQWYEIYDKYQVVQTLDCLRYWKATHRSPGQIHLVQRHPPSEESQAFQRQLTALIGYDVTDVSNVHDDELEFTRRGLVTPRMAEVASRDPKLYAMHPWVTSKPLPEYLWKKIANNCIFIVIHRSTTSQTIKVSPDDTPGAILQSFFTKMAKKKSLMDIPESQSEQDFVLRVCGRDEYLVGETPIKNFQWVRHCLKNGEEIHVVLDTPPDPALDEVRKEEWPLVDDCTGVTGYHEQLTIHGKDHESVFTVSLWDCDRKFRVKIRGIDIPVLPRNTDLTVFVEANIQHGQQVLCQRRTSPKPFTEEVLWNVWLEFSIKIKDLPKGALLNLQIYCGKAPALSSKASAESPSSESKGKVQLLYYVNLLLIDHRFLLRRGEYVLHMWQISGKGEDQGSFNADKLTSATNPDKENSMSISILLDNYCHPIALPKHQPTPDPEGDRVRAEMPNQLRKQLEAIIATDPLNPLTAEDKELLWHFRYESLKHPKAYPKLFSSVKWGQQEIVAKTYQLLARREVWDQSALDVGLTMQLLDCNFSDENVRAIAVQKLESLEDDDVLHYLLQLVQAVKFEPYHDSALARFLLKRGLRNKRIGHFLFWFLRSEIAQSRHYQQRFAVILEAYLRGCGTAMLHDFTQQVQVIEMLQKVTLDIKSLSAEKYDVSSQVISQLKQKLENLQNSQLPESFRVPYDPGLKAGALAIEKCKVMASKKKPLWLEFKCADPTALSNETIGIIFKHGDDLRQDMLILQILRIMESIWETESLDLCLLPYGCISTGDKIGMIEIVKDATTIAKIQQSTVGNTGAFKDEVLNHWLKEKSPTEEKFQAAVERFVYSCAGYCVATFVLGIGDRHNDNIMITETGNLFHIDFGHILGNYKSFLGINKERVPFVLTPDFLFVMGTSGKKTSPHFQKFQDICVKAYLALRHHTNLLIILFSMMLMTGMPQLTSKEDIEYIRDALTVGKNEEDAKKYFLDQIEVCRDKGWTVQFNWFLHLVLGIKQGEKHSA
The next data set addresses PI3 Kinase α (Homo sapiens, UniProt P42336). The experiment in a line: Fluorescence polarization assay for PI3K (PI3 Kinase α). The note with it: diC8-PI(4,5)P2 substrate, 25 μM ATP, one hour at 25° C. It counts as biochemical.

Structures are written as SMILES. pIC50: −log10 of the molar value. Counter-ions that a name gives are not always drawn. Like-named read-outs stand apart in the source and are kept apart here.

Data on 8 compounds can be found in patent US20090181963A1, “3H-[1,2,3]TRIAZOLO[4,5-D]PYRIMIDINE COMPOUNDS, THEIR USE AS mTOR KINASE AND PI3 KINASE INHIBITORS, AND THEIR [sequence]” (Wyeth, priority 2008, published 2009).

PI3 Kinase α, sequence (P42336 whole entry): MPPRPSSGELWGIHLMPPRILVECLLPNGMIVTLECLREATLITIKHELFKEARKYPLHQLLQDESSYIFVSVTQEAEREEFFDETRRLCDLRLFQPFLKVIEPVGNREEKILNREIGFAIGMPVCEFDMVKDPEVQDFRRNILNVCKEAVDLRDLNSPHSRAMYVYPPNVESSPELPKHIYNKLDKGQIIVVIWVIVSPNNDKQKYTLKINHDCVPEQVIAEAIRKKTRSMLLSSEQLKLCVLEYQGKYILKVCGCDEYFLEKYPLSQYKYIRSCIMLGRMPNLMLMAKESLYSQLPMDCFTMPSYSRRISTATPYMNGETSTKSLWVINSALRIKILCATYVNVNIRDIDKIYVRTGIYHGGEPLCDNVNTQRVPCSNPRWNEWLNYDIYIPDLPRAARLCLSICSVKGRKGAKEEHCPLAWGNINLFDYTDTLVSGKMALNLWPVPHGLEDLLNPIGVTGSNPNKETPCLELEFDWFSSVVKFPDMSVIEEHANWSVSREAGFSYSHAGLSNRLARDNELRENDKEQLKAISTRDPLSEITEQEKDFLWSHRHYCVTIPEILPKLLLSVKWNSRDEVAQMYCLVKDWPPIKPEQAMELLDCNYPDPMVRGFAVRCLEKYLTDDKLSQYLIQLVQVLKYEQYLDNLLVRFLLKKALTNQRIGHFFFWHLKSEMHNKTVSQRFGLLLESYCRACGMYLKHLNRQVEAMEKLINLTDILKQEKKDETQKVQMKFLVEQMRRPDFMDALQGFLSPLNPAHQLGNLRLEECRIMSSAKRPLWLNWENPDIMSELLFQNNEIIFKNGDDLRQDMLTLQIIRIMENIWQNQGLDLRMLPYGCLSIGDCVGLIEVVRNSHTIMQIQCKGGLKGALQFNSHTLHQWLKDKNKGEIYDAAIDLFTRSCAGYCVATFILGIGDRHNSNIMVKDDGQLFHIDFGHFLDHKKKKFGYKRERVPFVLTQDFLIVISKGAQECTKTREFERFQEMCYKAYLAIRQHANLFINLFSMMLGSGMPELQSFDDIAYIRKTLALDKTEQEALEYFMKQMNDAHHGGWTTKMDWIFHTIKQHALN
PI3 Kinase α, sequence (P27986 whole entry partner): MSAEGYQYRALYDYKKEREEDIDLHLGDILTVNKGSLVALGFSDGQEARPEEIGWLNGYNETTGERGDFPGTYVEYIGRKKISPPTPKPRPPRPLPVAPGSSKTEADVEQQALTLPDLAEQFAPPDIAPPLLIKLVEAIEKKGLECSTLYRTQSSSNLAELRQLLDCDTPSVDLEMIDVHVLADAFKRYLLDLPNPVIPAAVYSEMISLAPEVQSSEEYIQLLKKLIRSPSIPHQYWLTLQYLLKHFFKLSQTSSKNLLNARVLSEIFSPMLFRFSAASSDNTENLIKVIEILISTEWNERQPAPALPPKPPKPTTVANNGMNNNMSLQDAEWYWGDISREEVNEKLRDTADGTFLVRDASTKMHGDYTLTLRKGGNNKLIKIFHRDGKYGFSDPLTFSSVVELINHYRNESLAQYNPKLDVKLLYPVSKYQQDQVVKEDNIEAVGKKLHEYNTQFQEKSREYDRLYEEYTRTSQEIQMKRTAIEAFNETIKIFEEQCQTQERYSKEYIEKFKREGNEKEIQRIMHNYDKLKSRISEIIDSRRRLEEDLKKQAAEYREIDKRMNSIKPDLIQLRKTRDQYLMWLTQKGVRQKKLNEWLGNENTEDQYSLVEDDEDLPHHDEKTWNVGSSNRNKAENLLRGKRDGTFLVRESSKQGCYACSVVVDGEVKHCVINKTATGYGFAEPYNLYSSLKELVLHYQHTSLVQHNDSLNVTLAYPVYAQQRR

As for `Cn1c(=O)n(-c2ccc(C(C)(C)C#N)cc2)c2c3cc(-c4cnc5ccccc5c4)ccc3ncc21` [NVP-BEZ-235, 2-methyl-2-(4-(3-methyl-2-oxo-8-(quinolin-3-yl)-2,3-dihydro-1H-imidazo[4,5-c]quinolin-1-yl)phenyl)propanenitrile], the “activity in human tumor xenograft models” value in data set [1] (prostrate (PC-3) and glioblastoma (U-87)) was “demonstrated activity”.

For `FC(F)c1nc2ccccc2n1-c1nc(N2CCOCC2)nc(N2CCOCC2)n1` [ZSTK474, 2-(2-difluoromethylbenzoimidazol-1-yl)-4,6-dimorpholino-1,3,5-triazine], the “tumor growth in mouse human xenograft cancer models” value in data set [1] (chronic oral administration, 400 mg/kg, A549, PC-3, WiDr) is reported as “completely inhibited growth”. Further, the pIC50 (as a rule, the IC50 on a negative log10 scale, so that one unit is a factor of ten) at mTOR enzymes was below 5.00.

Consider `CO[C@H]1C[C@@H]2CC[C@@H](C)[C@@](O)(O2)C(=O)C(=O)N2CCCC[C@H]2C(=O)O[C@H]([C@H](C)C[C@@H]2CC[C@@H](OC(=O)C(C)(CO)CO)[C@H](OC)C2)CC(=O)[C@H](C)/C=C(\C)[C@@H](O)[C@@H](OC)C(=O)[C@H](C)C[C@H](C)/C=C/C=C/C=C/1C` [Torisel], for which the “activity in xenograft mouse model” value in data set [1] (NOS/SCID xenograft mouse model of acute lymphoblastic leukemia) is given as “active”.

Consider `O=C(Nc1ccncc1)Nc1ccc(-c2nc(N3CCOCC3)c3nnn(C4CCOCC4)c3n2)cc1` (as salt: HCl) [Example 198, 1-{4-[7-morpholin-4-yl-3-(tetrahydro-2H-pyran-4-yl)-3H-[1,2,3]triazolo[4,5-d]pyrimidin-5-yl]phenyl}-3-pyridin-4-ylurea], for which the melting point – broadly, the temperature of the solid-liquid transition – was 332 °C.

For `Oc1cccc(-c2nc(N3CCOCC3)c3oc4ncccc4c3n2)c1` [PI103, 3-(4-(4-morpholinyl)pyrido[3′,2′:4,5]furo[3,2-d]pyrimidin-2-yl)phenol], the “activity in human tumor xenograft models” value in data set [1] (I.P. dosing in mice, U87MG, PC3, MDA-MB-468, MDA-MB-435, HCT 116, SKOV3, IGROV-1) was “demonstrated activity”. The pIC50 in the data set with PI3K is […].

Consider `Cn1nnc2c(N3CCOCC3)nc(-c3ccc(NC(=O)Nc4ccsc4)cc3)nc21` [Example 201, 1-[4-(3-methyl-7-morpholin-4-yl-3H-[1,2,3]triazolo[4,5-d]pyrimidin-5-yl)phenyl]-3-(3-thienyl)urea], for which the melting point turned out to be 272 °C. Also, on PI3 Kinase γ, the pIC50 was 7.59. This compound also gave a pIC50 at PI3 Kinase α of 8.35.

As for `CNC(=O)Nc1ccc(-c2nc(N3CCOCC3)c3nnn(C4CCN(Cc5ccccc5)CC4)c3n2)cc1` [Example 6, 1-{4-[3-(1-benzylpiperidin-4-yl)-7-morpholin-4-yl-3H-[1,2,3]triazolo[4,5-d]pyrimidin-5-yl]phenyl}-3-methylurea], the pIC50 against PI3 Kinase γ is 6.21; against PI3 Kinase α, 7.00.

`CN(C)CCNC(=O)Nc1ccc(-c2nc(N3CCOCC3)c3nnn(C4CCN(Cc5ccccc5)CC4)c3n2)cc1` [Example 4, 1-{4-[3-(1-benzylpiperidin-4-yl)-7-morpholin-4-yl-3H-[1,2,3]triazolo[4,5-d]pyrimidin-5-yl]phenyl}-3-[2-(dimethylamino)ethyl]urea]: the pIC50 at PI3 Kinase γ is 6.69; at PI3 Kinase α, 7.18.
